{"source": "paper PMC6494957", "about": "(Frontiers in Microbiology, 2019)", "key": {"[1]": {"test_system": "E. coli ATCC 11229", "assay": "microbe, parasite or virus in culture", "procedure": "(§1) The MIC for ampicillin or gentamicin against each isolate was determined for each test to serve as an internal quality control. The MICs of isolates were determined by visual reading and using an EnSpire Multimode Plate Reader 2300 atA600nm.\n(§2) Briefly, antimicrobial stock solutions for robenidine and PMBN were prepared at a concentration of 12.8 mg/ml in DMSO. […] A 1 μl aliquot of the first compound from each combination was dispensed along the abscissa (from row A to G) of the 96-well microplate, while the second compound was dispensed along the ordinate (from column 12 to column 3) using an electronic multichannel pipette followed by 89 μl of LB broth. Each well of the plate was inoculated with an aliquot of 10 μl bacterial suspension at a concentration of 1-5 × 10^6 colony forming units (CFU) per ml. Subsequently, the plate was incubated at 37°C for 24 h. The fractional inhibitory concentration index (FICI) described the results of the combinations, and was calculated utilizing the following formula:\n(§3) DRI = MIC of drug alone/MIC of drug in combination"}, "[2]": {"test_system": "E. coli ATCC 25922", "assay": "microbe, parasite or virus in culture", "procedure": "as §1, §2, §3"}, "[3]": {"test_system": "P. putida ATCC 17428", "assay": "microbe, parasite or virus in culture", "procedure": "as §1, §2, §3"}, "[4]": {"test_system": "A. baumannii ATCC 12457", "assay": "microbe, parasite or virus in culture", "procedure": "as §1, §2, §3"}, "[5]": {"test_system": "A. baumannii ATCC 19606", "assay": "microbe, parasite or virus in culture", "procedure": "as §1, §2, §3"}, "[6]": {"test_system": "P. mirabilis ATCC 43071", "assay": "microbe, parasite or virus in culture", "procedure": "as §1, §2, §3"}, "[7]": {"test_system": "A. calcoaceticus (human clinical isolate)", "assay": "microbe, parasite or virus in culture", "procedure": "as §1, §2, §3"}, "[8]": {"test_system": "K. pneumoniae ATCC 13883", "assay": "microbe, parasite or virus in culture", "procedure": "as §1, §2, §3"}, "[9]": {"test_system": "P. aeruginosa (n = 30) clinical isolates from otitis externa cases in dogs", "assay": "MIC/MBC and checkerboard, canine otitis externa isolates", "type": "cell-based, Pseudomonas aeruginosa", "text": "(§4) Escherichia coli ATCC 25922, E. coli ATCC 11229, P. aeruginosa ATCC 27853, P. aeruginosa PA01, Pseudomonas putida ATCC 17428, P. mirabilis ATCC 43071, K. pneumoniae ATCC 13883, A. baumannii ATCC 19606, and A. baumannii ATCC 12457 were used for preliminary susceptibility testing and combination experiments. S. aureus ATCC 29213 and S. pneumoniae ATCC 49619 were used as internal quality controls. A variety of bacterial organisms from both human and canine infections were investigated in this study (n = 119 isolates in total). Twenty-eight clinical Acinetobacter spp. isolates were obtained from cases of human skin and soft tissue infections, including 18 Acinetobacter baumannii and 10 A. calcoaceticus, kindly provided by a person (Institute of Medical and Veterinary Science, South Australia). […] Ninety-one clinical isolates were obtained from cases of canine otitis externa, including seven methicillin-susceptible S. pseudintermedius (MSSP), 13 multidrug- and methicillin-resistant S. pseudintermedius (MRSP) ([Saputra et al., 2017]), 20 beta-haemolytic Streptococcus spp., 30 P. aeruginosa (10 of them resistant to gentamicin and 21 P. mirabilis isolates). These isolates were obtained from the bacterial collection of the national survey of antimicrobial resistance in animals conducted in Australia. Swab samples from dogs with signs of otitis externa were collected by veterinarians and submitted to government, private or university diagnostic laboratories throughout Australia. After routine bacterial identification and the removal of confidential information, the participating veterinary diagnostic laboratories submitted the bacteria and their clinical information to PC2 Laboratories, Australian Centre for Antimicrobial Resistance Ecology, School of Animal and Veterinary Sciences, University of Adelaide, Roseworthy Campus, Roseworthy, SA, Australia, for further study. Thus, animal ethics approval was not required in this study. These organisms were identified to species level using biochemical testing and MALDI-TOF mass spectrometry (Bruker, Preston, VIC, Australia).\nas §1\n(§5) Briefly, 10 μl aliquots from each duplicate well from the MIC assays (starting from the MIC for each compound) were inoculated onto a sheep blood agar (SBA) plate and incubated at 37°C.\nas §2, §3"}, "[10]": {"test_system": "P. mirabilis (n = 21) clinical isolates from otitis externa cases in dogs", "assay": "MIC/MBC and checkerboard, canine otitis externa isolates", "type": "cell-based, Proteus mirabilis", "text": "as §4, §1, §5, §2, §3"}, "[11]": {"test_system": "S. pseudintermedius (n = 20) clinical isolates from otitis externa cases in dogs", "assay": "MIC/MBC and checkerboard, canine otitis externa isolates", "type": "cell-based, Staphylococcus pseudintermedius", "text": "as §4, §1, §5, §2, §3"}, "[12]": {"conditions": "E. coli ATCC 11229, concentration of the labelled component"}, "[13]": {"conditions": "E. coli ATCC 25922, concentration of the labelled component"}, "[14]": {"conditions": "P. putida ATCC 17428, concentration of the labelled component"}, "[15]": {"conditions": "A. baumannii ATCC 12457, concentration of the labelled component"}, "[16]": {"conditions": "A. baumannii ATCC 19606, concentration of the labelled component"}, "[17]": {"conditions": "A. calcoaceticus human clinical isolate, concentration of the labelled component"}, "[18]": {"conditions": "K. pneumoniae ATCC 13883, concentration of the labelled component"}, "[19]": {"conditions": "concentration of the labelled component"}}, "data": [{"smiles": "N=C(N/N=C/c1ccc(Cl)cc1)N/N=C/c1ccc(Cl)cc1", "note": "[ROB, robenidine]", "values": [{"measurement": "MIC, single drug", "setting": "[1]; E. coli ATCC 11229", "result": ">256", "unit": "µg/mL"}, {"measurement": "DRI EDTA:ROB", "setting": "[1]; E. coli ATCC 11229, DRI of the labelled component", "result": 32}, {"measurement": "MIC in combination EDTA:ROB", "setting": "[1]; [12]", "result": 8, "unit": "µg/mL"}, {"measurement": "MIC in combination PMBN:ROB", "setting": "[1]; [12]", "result": 8, "unit": "µg/mL"}, {"measurement": "MIC", "setting": "[1]; Escherichia coli, ATCC11229, read-out: MIC, single drug", "result": "> 256", "unit": "µg/mL"}, {"measurement": "MIC, single drug", "setting": "[2]; E. coli ATCC 25922", "result": ">256", "unit": "µg/mL"}, {"measurement": "DRI EDTA:ROB", "setting": "[2]; E. coli ATCC 25922, DRI of the labelled component", "result": 64}, {"measurement": "MIC in combination EDTA:ROB", "setting": "[2]; [13]", "result": 4, "unit": "µg/mL"}, {"measurement": "MIC in combination PMBN:ROB", "setting": "[2]; [13]", "result": 8, "unit": "µg/mL"}, {"measurement": "MIC", "setting": "[2]; Escherichia coli, ATCC25922, read-out: MIC, single drug", "result": "> 256", "unit": "µg/mL"}, {"measurement": "DRI EDTA:ROB", "setting": "[3]; P. putida ATCC 17428, DRI of the labelled component", "result": 256}, {"measurement": "MIC in combination EDTA:ROB", "setting": "[3]; [14]", "result": 1.25, "unit": "µg/mL"}, {"measurement": "MIC in combination PMBN:ROB", "setting": "[3]; [14]", "result": "1:1 μg/ml"}, {"measurement": "MIC", "setting": "[3]; Pseudomonas putida, ATCC17428, read-out: MIC, single drug", "result": "> 256", "unit": "µg/mL"}, {"measurement": "DRI EDTA:ROB", "setting": "[4]; A. baumannii ATCC 12457, DRI of the labelled component", "result": 32}, {"measurement": "MIC in combination EDTA:ROB", "setting": "[4]; [15]", "result": 2, "unit": "µg/mL"}, {"measurement": "MIC in combination PMBN:ROB", "setting": "[4]; [15]", "result": 2, "unit": "µg/mL"}, {"measurement": "MIC", "setting": "[4]; Acinetobacter baumannii, ATCC12457, read-out: MIC, single drug", "result": 64, "unit": "µg/mL"}, {"measurement": "DRI EDTA:ROB", "setting": "[5]; A. baumannii ATCC 19606, DRI of the labelled component", "result": 8}, {"measurement": "MIC in combination EDTA:ROB", "setting": "[5]; [16]", "result": 4, "unit": "µg/mL"}, {"measurement": "MIC in combination PMBN:ROB", "setting": "[5]; [16]", "result": 2, "unit": "µg/mL"}, {"measurement": "MIC", "setting": "[5]; Acinetobacter baumannii, ATCC19606, read-out: MIC, single drug", "result": 32, "unit": "µg/mL"}, {"measurement": "MIC, single drug", "setting": "[6]; P. mirabilis ATCC 43071", "result": ">256", "unit": "µg/mL"}, {"measurement": "DRI EDTA:ROB", "setting": "[6]; P. mirabilis ATCC 43071, DRI of the labelled component", "result": 256}, {"measurement": "MIC in combination EDTA:ROB", "setting": "[6]; P. mirabilis ATCC 43071, concentration of the labelled component", "result": 1.25, "unit": "µg/mL"}, {"measurement": "MIC", "setting": "[6]; Proteus mirabilis, ATCC43071, read-out: MIC, single drug", "result": "> 256", "unit": "µg/mL"}, {"measurement": "DRI EDTA:ROB", "setting": "[7]; A. calcoaceticus human clinical isolate, DRI of the labelled component", "result": 32}, {"measurement": "MIC in combination EDTA:ROB", "setting": "[7]; [17]", "result": 0.125, "unit": "µg/mL"}, {"measurement": "MIC in combination PMBN:ROB", "setting": "[7]; [17]", "result": 0.5, "unit": "µg/mL"}, {"measurement": "MIC", "setting": "[7]; Acinetobacter calcoaceticus, read-out: MIC, single drug", "result": 4, "unit": "µg/mL"}, {"measurement": "MIC, single drug", "setting": "[8]; K. pneumoniae ATCC 13883", "result": ">256", "unit": "µg/mL"}, {"measurement": "DRI EDTA:ROB", "setting": "[8]; K. pneumoniae ATCC 13883, DRI of the labelled component", "result": 2}, {"measurement": "MIC in combination EDTA:ROB", "setting": "[8]; [18]", "result": 128, "unit": "µg/mL"}, {"measurement": "MIC in combination PMBN:ROB", "setting": "[8]; [18]", "result": 4, "unit": "µg/mL"}, {"measurement": "MIC", "setting": "[8]; Klebsiella pneumoniae, ATCC13883, read-out: MIC, single drug", "result": "> 256", "unit": "µg/mL"}, {"measurement": "MBC/MIC, ROB in combination with EDTA", "setting": "[9]", "result": "≥2"}, {"measurement": "MIC50", "setting": "[9]; Pseudomonas aeruginosa, canine otitis externa, read-out: MIC50, single drug", "result": "> 256", "unit": "µg/mL"}, {"measurement": "MIC90", "setting": "[9]; Pseudomonas aeruginosa, canine otitis externa, read-out: MIC90, single drug", "result": "> 256", "unit": "µg/mL"}, {"measurement": "MIC range, single drug", "setting": "[9]; canine otitis externa", "result": ">256", "unit": "µg/mL"}, {"measurement": "MIC50, in combination of EDTA and ROB", "setting": "[9]; [19]", "result": 0.25, "unit": "µg/mL"}, {"measurement": "MIC90, in combination of EDTA and ROB", "setting": "[9]; [19]", "result": 2, "unit": "µg/mL"}, {"measurement": "MIC range, in combination of EDTA and ROB", "setting": "[9]; [19]", "result": "0.125 to 4", "unit": "µg/mL"}, {"measurement": "MBC/MIC, ROB in combination with EDTA", "setting": "[10]", "result": "≥2"}, {"measurement": "MIC50", "setting": "[10]; Proteus mirabilis, canine otitis externa, read-out: MIC50, single drug", "result": "> 256", "unit": "µg/mL"}, {"measurement": "MIC90", "setting": "[10]; Proteus mirabilis, canine otitis externa, read-out: MIC90, single drug", "result": "> 256", "unit": "µg/mL"}, {"measurement": "MIC range, single drug", "setting": "[10]; canine otitis externa", "result": ">256", "unit": "µg/mL"}, {"measurement": "MIC50, in combination of EDTA and ROB", "setting": "[10]; [19]", "result": 0.125, "unit": "µg/mL"}, {"measurement": "MIC90, in combination of EDTA and ROB", "setting": "[10]; [19]", "result": 0.5, "unit": "µg/mL"}, {"measurement": "MIC range, in combination of EDTA and ROB", "setting": "[10]; [19]", "result": "0.125 to 4", "unit": "µg/mL"}, {"measurement": "MBC/MIC, ROB in combination with EDTA", "setting": "[11]", "result": 2}, {"measurement": "MIC50", "setting": "[11]; Staphylococcus pseudintermedius, canine otitis externa, read-out: MIC50, single drug", "result": 2, "unit": "µg/mL"}, {"measurement": "MIC90", "setting": "[11]; Staphylococcus pseudintermedius, canine otitis externa, read-out: MIC90, single drug", "result": 2, "unit": "µg/mL"}, {"measurement": "MIC range, single drug", "setting": "[11]; canine otitis externa", "result": "1 to 4", "unit": "µg/mL"}, {"measurement": "MIC50, in combination of EDTA and ROB", "setting": "[11]; [19]", "result": 1, "unit": "µg/mL"}, {"measurement": "MIC90, in combination of EDTA and ROB", "setting": "[11]; [19]", "result": 1, "unit": "µg/mL"}, {"measurement": "MIC range, in combination of EDTA and ROB", "setting": "[11]; [19]", "result": "0.25 to 2", "unit": "µg/mL"}, {"measurement": "MBC/MIC, single drug", "setting": "[11]; footnote for BS not shown", "result": 1.5}]}]}
